Data set [1] is described as follows: Rat oral pharmacokinetics. In kind it is in vivo, Male Sprague-Dawley rats. As to conditions: rats, oral 20 mg FMN/kg. As for the experimental part: The study was carried out in rats at a 20 mg FMN/kg dose. The plasma concentration profiles and the PK parameters are presented in Figure 9 and Table 4, respectively.
The experiments were carried out in accordance with the Guidelines for Animal Experimentation of Nonclinical Center, Chaon Co. Ltd. (Yongin, Republic of Korea) and approved by the Animal Ethics Committee of the institution (CE23665) on 13 February 2024. Male Sprague−Dawley rats (230−300 g, 8 weeks) were obtained from Dae Han Bio Link Co., Ltd. (Eumseong-gun, Republic of Korea). All rats had free access to food and water in a controlled environment for one week. […] After stirring for 5 min at 37 °C, an appropriate volume (about 200 μL) of suspension was delivered via oral gavage at a dosage of 20 mg/kg body weight. Approximately 300 μL blood samples were obtained from tail veins and placed into tubes pretreated with sodium citrate before and after 0.25, 0.5, 1, 2, 4, 8, and 24 h of dosing. Blood samples were immediately centrifuged at 5000 rpm for 10 min. All the plasma samples were stored at −80 °C until analysis. FMN from plasma samples were prepared for analysis by liquid–liquid extraction using methyl tert-butyl ether according to the following steps: 60 µL internal standard (IS) solution (10 ng/mL in 50% methanol) was added to 70 µL plasma sample and […] was placed in a 15 mL tube. The sample solution was vortexed for 10 min followed by centrifugation for 5 min at 4000 rpm. The upper organic layer was transferred to a clean test tube and evaporated on a heating block at 50 °C under nitrogen. The residue was dissolved in the 50% acetonitrile (900 µL, in 0.1% formic acid) and mixed on a vortex mixer for 30 s. Resulting sample solution was transferred to auto-sampler vials, and 5 µL aliquot was injected into the LC/MS/MS system for analysis of FMN by a validated method as described below.
The pharmacokinetic data were analyzed by Winnlene (China Pharmaceutical University, Nanjing, China), using the noncompartmental method to calculate the peak plasma concentration (Cmax), the time to reach Cmax (Tmax), and the area under the plasma concentration−time curve (AUC).
FMN quantitative analysis was carried out using Agilent 1200 system (Agilent, Waldbronn, Germany) with triple quadrupole mass spectrometry API5000 (ABSciex, Vaughan, ON, Canada) operated in negative electrospray ionization using MRM mode. A Luna C8(2) column (2.1 mm I.D., 100 mm length, 5 μm; Phenomenex, Torrance, CA, USA) was maintained at 40 °C. Gradient elution was carried out at a flow rate of 0.3 mL/min using mobile phase A (distilled water) and mobile phase B (acetonitrile). The gradient applied was as follows: from 0 to 2.5 min, 50% B; from 2.6 to 7.0 min, 95% B; and from 7.1 to 11.5 min, 50% B. Sample volumes of 5 μL were injected. The fragmentation transitions were m/z 267.1 → 252.0 for FMN and m/z 197.0 → 92.0 for […], respectively. Optimized instrument settings specific for FMN and IS were as follows: curtain gas, 20 psi; ion source gas 1, 50 psi; ion source gas 2, 50 psi; ion spray voltage, −4500 V; turbo heater temperature, 650 °C. The precursor ions of FMN and IS were formed using declustering potentials of −90 and −40 V, respectively, and their precursor ions were fragmented at collision energies of −28 and −42 eV by collision-activated dissociation with nitrogen at a pressure setting of 5 (arbitrary units). Both quadrupoles were maintained at unit resolution. The ratio of the standard to IS peak area was used for calibration by linear regression analysis.

Data set [2] can be described thus: Physical stability test (PXRD after storage). In kind it is physicochemical. As for the experimental part:
Powder samples in closed glass vials were stored at 4 and 40 °C. They were then analyzed by PXRD for crystallization at given time points. PXRD measurement conditions were the same as described above.

The nature of data set [3]: Powder dissolution experiment in bio-relevant media (FaSSGF, FaSSIF). The note with it: 37 °C.
Experimental: Bio-relevant media, FaSSGF and FaSSIF, were used for powder dissolution tests to mimic in vivo environments.
Powder samples were sieved through a 300 µm sieve. FaSSGF and FaSSIF were prepared according to the literature, except pepsin was not included in FaSSGF [41]. Samples equivalent to 5 mg of FMN were added to 20 mL glass vials containing 10 mL of FaSSGF or FaSSIF. Sample vials were placed in a shaking incubator (SIF-6000R, Jeio Tech, Daejeon, Republic of Korea) at 37 °C. Aliquots (1 mL) were collected at designated time points and filtered through a 0.45 µm PVDF filter and diluted with the HPLC mobile phase for HPLC analysis. Additional test for cocrystal was carried out in the presence of PVP K30 (2.5 mg/mL) in FaSSGF or FaSSIF.
FMN quantitative analysis was carried out using a Shimadzu system (Japan) equipped with a C8 column (5 μm, 4.6 mm I.D., and 150 mm length, Waters, Milford, MA, USA) at room temperature. The mobile phase was composed of methanol/water (60:40, v/v). Samples were injected in a volume of 10 μL with a total flow rate set at 1.0 mL/min. Detection was carried out at a UV wavelength of 254 nm. The area of the standard was used for calibration by linear regression analysis.
Setting [4] is: plasma FMN, suspension in 1% PVP-K30, n = 4.

“Also recorded” adds a separate entry of the source. Where two headings read alike, the source gives them in different places.

Turning to “formononetin-imidazole [FMN-IMD cocrystal]”, in data set [1] (setting [4]), the AUCinf is 44.52 ± 19.11 ng·h/mL, the Cmax was 8.93 ± 6.66 ng/mL, the T1/2 is listed as 5.60 ± 2.19 h and the Tmax is on record as 0.44 ± 0.38 h. In data set [1] (plasma FMN, suspension in 1% PVP-K30, n = 4, mean ± SD), this compound registered an AUCt of 37.38 ± 20.97 ng·h/mL. For the same compound, in data set [1], the “increase in AUC compared to crystalline FMN” value is 3.58 fold and the “increase in Cmax compared to crystalline FMN” value is on record as 4.93 fold. For the same compound, the “physical stability (PXRD) after storage” value in data set [2] (six months at 4 and 40 °C, closed glass vials) was “remained the same for six months”. In addition, the “physical stability (PXRD) after storage” value in data set [2] (six months at 40 °C) is given as “no changes in the PXRD; also recorded: stable for six months”. Further, the “dissolution rate and concentration at 6 h compared with crystalline FMN” value in data set [3] was “faster dissolution rate and higher concentration at the 6-h time point”.

In data set [1] (male, Sprague-Dawley, rat, 20 mg/kg, plasma FMN, crystalline FMN suspension in 1% PVP-K30, n = 4), `COc1ccc(-c2coc3cc(O)ccc3c2=O)cc1` [FMN, Formononetin] came in with an AUC(0-inf) of 16.4 ± 1.51 ng·h/mL. In data set [1] (male, Sprague-Dawley, rat, 20 mg/kg, plasma FMN, crystalline FMN suspension in 1% PVP-K30, n = 4, mean ± SD), this compound had an AUC(0-t) of 10.4 ± 3.19 ng·h/mL. The Cmax in data set [1] (male, Sprague-Dawley, rat, 20 mg/kg, plasma FMN, crystalline FMN suspension in 1% PVP-K30, n = 4, read-out: Cmax) was 1.81 ± 0.73 ng/mL. This compound also showed a half-life in data set [1] (male, Sprague-Dawley, rat, 20 mg/kg, plasma FMN, suspension in 1% PVP-K30, n = 4) of 7.1 ± 3.35 h. The Tmax in data set [1] (male, Sprague-Dawley, rat, 20 mg/kg, plasma FMN, suspension in 1% PVP-K30, n = 4, read-out: Tmax) was determined as 5 ± 2 h.

Broadly, the Cmax is the peak of the concentration-time curve. As usually defined, the Tmax is the time from dosing to the highest level. As usually defined, the AUC(0-inf) is the area under the concentration-time curve extrapolated to infinity. Lower therefore signals less exposure. By AUC(0-t) is commonly meant exposure summed from dosing to a finite time, without extrapolation to infinity. The low end stands for low exposure, the high end for high exposure. Usually half-life stands for the time needed for the level to fall by half in the phase considered. A low value points to rapid decline.

The values are drawn from PMC11597446, “Using the Cocrystal Approach as a Promising Drug Delivery System to Enhance the Dissolution and Bioavailability of Formononetin Using an Imidazole Coformer” (Pharmaceuticals, 2024).
